Test results as given in ChEMBL document CHEMBL5154747, “Discovery of new carbonic anhydrase IX inhibitors as anticancer agents by toning the hydrophobic and hydrophilic rims of the active site to encounter the dual-tail approach” (Eur J Med Chem, 2022).

What was measured:
[1] = target: Carbonic anhydrase 9 (Homo sapiens, UniProt Q16790); assay: Inhibition of recombinant human CA 9 preincubated for 15 mins by phenol red dye based stopped flow CO2 hydration assay
[2] = system: HL-60(TB); assay: Anticancer activity against human HL-60(TB) cells assessed as cell growth inhibition at 10 uM incubated for 48 hrs by SRB assay relative to control; format: functional; conditions: read-out: GI
[3] = system: MOLT-4; assay: Anticancer activity against human MOLT-4 cells assessed as cell growth inhibition at 10 uM incubated for 48 hrs by SRB assay relative to control; format: functional; conditions: read-out: GI
[4] = system: RPMI-8226; assay: Anticancer activity against human RPMI-8226 cells assessed as cell growth inhibition at 10 uM incubated for 48 hrs by SRB assay relative to control; format: functional; conditions: read-out: GI
[5] = system: SR; assay: Anticancer activity against human SR cells assessed as cell growth inhibition at 10 uM incubated for 48 hrs by SRB assay relative to control; format: functional; conditions: read-out: GI
[6] = system: A549; assay: Anticancer activity against human A549 cells assessed as cell growth inhibition at 10 uM incubated for 48 hrs by SRB assay relative to control; format: functional; conditions: read-out: GI
[7] = system: EKVX; assay: Anticancer activity against human EKVX cells assessed as cell growth inhibition at 10 uM incubated for 48 hrs by SRB assay relative to control; format: functional; conditions: read-out: GI
[8] = system: HOP-62; assay: Anticancer activity against human HOP-62 cells assessed as cell growth inhibition at 10 uM incubated for 48 hrs by SRB assay relative to control; format: functional; conditions: read-out: GI
[9] = system: NCI-H226; assay: Anticancer activity against human NCI-H226 cells assessed as cell growth inhibition at 10 uM incubated for 48 hrs by SRB assay relative to control; format: functional; conditions: read-out: GI
[10] = system: NCI-H460; assay: Anticancer activity against human NCI-H460 cells assessed as cell growth inhibition at 10 uM incubated for 48 hrs by SRB assay relative to control; format: functional; conditions: read-out: GI
[11] = system: COLO 205; assay: Anticancer activity against human COLO 205 cells assessed as cell growth inhibition at 10 uM incubated for 48 hrs by SRB assay relative to control; format: functional; conditions: read-out: GI
[12] = system: HCC 2998; assay: Anticancer activity against human HCC 2998 cells assessed as cell growth inhibition at 10 uM incubated for 48 hrs by SRB assay relative to control; format: functional; conditions: read-out: GI
[13] = system: HCT-116; assay: Anticancer activity against human HCT-116 cells assessed as cell growth inhibition at 10 uM incubated for 48 hrs by SRB assay relative to control; format: functional; conditions: read-out: GI
[14] = system: KM12; assay: Anticancer activity against human KM12 cells assessed as cell growth inhibition at 10 uM incubated for 48 hrs by SRB assay relative to control; format: functional; conditions: read-out: GI
[15] = system: SF-268; assay: Anticancer activity against human SF-268 cells assessed as cell growth inhibition at 10 uM incubated for 48 hrs by SRB assay relative to control; format: functional; conditions: read-out: GI
[16] = system: SNB-19; assay: Anticancer activity against human SNB-19 cells assessed as cell growth inhibition at 10 uM incubated for 48 hrs by SRB assay relative to control; format: functional; conditions: read-out: GI
[17] = system: U-251; assay: Anticancer activity against human U-251 cells assessed as cell growth inhibition at 10 uM incubated for 48 hrs by SRB assay relative to control; format: functional; conditions: read-out: GI
[18] = system: Malme-3M; assay: Anticancer activity against human Malme-3M cells assessed as cell growth inhibition at 10 uM incubated for 48 hrs by SRB assay relative to control; format: functional; conditions: read-out: GI
[19] = system: MDA-MB-435; assay: Anticancer activity against human MDA-MB-435 cells assessed as cell growth inhibition at 10 uM incubated for 48 hrs by SRB assay relative to control; format: functional; conditions: read-out: GI
[20] = system: SK-MEL-2; assay: Anticancer activity against human SK-MEL-2 cells assessed as cell growth inhibition at 10 uM incubated for 48 hrs by SRB assay relative to control; format: functional; conditions: read-out: GI
[21] = system: SK-MEL-5; assay: Anticancer activity against human SK-MEL-5 cells assessed as cell growth inhibition at 10 uM incubated for 48 hrs by SRB assay relative to control; format: functional; conditions: read-out: GI
[22] = system: UACC-257; assay: Anticancer activity against human UACC-257 cells assessed as cell growth inhibition at 10 uM incubated for 48 hrs by SRB assay relative to control; format: functional; conditions: read-out: GI
[23] = system: UACC-62; assay: Anticancer activity against human UACC-62 cells assessed as cell growth inhibition at 10 uM incubated for 48 hrs by SRB assay relative to control; format: functional; conditions: read-out: GI
[24] = system: IGROV-1; assay: Anticancer activity against human IGROV-1 cells assessed as cell growth inhibition at 10 uM incubated for 48 hrs by SRB assay relative to control; format: functional; conditions: read-out: GI
[25] = system: OVCAR-3; assay: Anticancer activity against human OVCAR-3 cells assessed as cell growth inhibition at 10 uM incubated for 48 hrs by SRB assay relative to control; format: functional; conditions: read-out: GI
[26] = system: OVCAR-5; assay: Anticancer activity against human OVCAR-5 cells assessed as cell growth inhibition at 10 uM incubated for 48 hrs by SRB assay relative to control; format: functional; conditions: read-out: GI
[27] = system: OVCAR-8; assay: Anticancer activity against human OVCAR-8 cells assessed as cell growth inhibition at 10 uM incubated for 48 hrs by SRB assay relative to control; format: functional; conditions: read-out: GI
[28] = system: NCI/ADR-RES; assay: Anticancer activity against human NCI/ADR-RES cells assessed as cell growth inhibition at 10 uM incubated for 48 hrs by SRB assay relative to control; format: functional; conditions: read-out: GI
[29] = system: 786-0; assay: Anticancer activity against human 786-0 cells assessed as cell growth inhibition at 10 uM incubated for 48 hrs by SRB assay relative to control; format: functional; conditions: read-out: GI
[30] = system: ACHN; assay: Anticancer activity against human ACHN cells assessed as cell growth inhibition at 10 uM incubated for 48 hrs by SRB assay relative to control; format: functional; conditions: read-out: GI
[31] = system: SN12C; assay: Anticancer activity against human SN12C cells assessed as cell growth inhibition at 10 uM incubated for 48 hrs by SRB assay relative to control; format: functional; conditions: read-out: GI
[32] = system: TK-10; assay: Anticancer activity against human TK-10 cells assessed as cell growth inhibition at 10 uM incubated for 48 hrs by SRB assay relative to control; format: functional; conditions: read-out: GI
[33] = system: UO-31; assay: Anticancer activity against human UO-31 cells assessed as cell growth inhibition at 10 uM incubated for 48 hrs by SRB assay relative to control; format: functional; conditions: read-out: GI
[34] = system: PC-3; assay: Anticancer activity against human PC-3 cells assessed as cell growth inhibition at 10 uM incubated for 48 hrs by SRB assay relative to control; format: functional; conditions: read-out: GI
[35] = system: MCF7; assay: Anticancer activity against human MCF7 cells assessed as cell growth inhibition at 10 uM incubated for 48 hrs by SRB assay relative to control; format: functional; conditions: read-out: GI
[36] = system: MDA-MB-231; assay: Anticancer activity against human MDA-MB-231 cells assessed as cell growth inhibition at 10 uM incubated for 48 hrs by SRB assay relative to control; format: functional; conditions: read-out: GI
[37] = system: Hs-578T; assay: Anticancer activity against human Hs-578T cells assessed as cell growth inhibition at 10 uM incubated for 48 hrs by SRB assay relative to control; format: functional; conditions: read-out: GI
[38] = system: BT-549; assay: Anticancer activity against human BT-549 cells assessed as cell growth inhibition at 10 uM incubated for 48 hrs by SRB assay relative to control; format: functional; conditions: read-out: GI
[39] = system: T47D; assay: Anticancer activity against human T47D cells assessed as cell growth inhibition at 10 uM incubated for 48 hrs by SRB assay relative to control; format: functional; conditions: read-out: GI
[40] = system: MDA-MB-468; assay: Anticancer activity against human MDA-MB-468 cells assessed as cell growth inhibition at 10 uM incubated for 48 hrs by SRB assay relative to control; format: functional; conditions: read-out: GI

Compound | Ki [1] | inhibition of growth at 10 µM [2] | inhibition of growth at 10 µM [3] | inhibition of growth at 10 µM [4] | inhibition of growth at 10 µM [5] | inhibition of growth at 10 µM [6] | inhibition of growth at 10 µM [7] | inhibition of growth at 10 µM [8] | inhibition of growth at 10 µM [9] | inhibition of growth at 10 µM [10] | inhibition of growth at 10 µM [11] | inhibition of growth at 10 µM [12] | inhibition of growth at 10 µM [13] | inhibition of growth at 10 µM [14] | inhibition of growth at 10 µM [15] | inhibition of growth at 10 µM [16] | inhibition of growth at 10 µM [17] | inhibition of growth at 10 µM [18] | inhibition of growth at 10 µM [19] | inhibition of growth at 10 µM [20] | further results
NS(=O)(=O)c1ccc(Nc2nc(N/N=C/c3c[nH]c4ccccc34)nc(Nc3ccccc3)n2)cc1 | 25.8 nM | 65% | 80% | 105% | 87% | 21% | 32% | 36% | 58% | 58% | 59% | 47% | 84% | 72% | 40% | 43% | 71% | 53% | 68% | 32% | inhibition of growth at 10 µM [21]: 60%; inhibition of growth at 10 µM [22]: 36%; inhibition of growth at 10 µM [23]: 61%; inhibition of growth at 10 µM [24]: 66%; inhibition of growth at 10 µM [25]: 73%; inhibition of growth at 10 µM [26]: 12%; inhibition of growth at 10 µM [27]: 62%; inhibition of growth at 10 µM [28]: < 10%; inhibition of growth at 10 µM [29]: 58%; inhibition of growth at 10 µM [30]: 18%; inhibition of growth at 10 µM [31]: 59%; inhibition of growth at 10 µM [32]: 20%; inhibition of growth at 10 µM [33]: 50%; inhibition of growth at 10 µM [34]: 73%; inhibition of growth at 10 µM [35]: 81%; inhibition of growth at 10 µM [36]: 51%; inhibition of growth at 10 µM [37]: 57%; inhibition of growth at 10 µM [38]: 51%; inhibition of growth at 10 µM [39]: 64%; inhibition of growth at 10 µM [40]: 47%
CN(C)c1ccc(/C=N/Nc2nc(Nc3ccccc3)nc(Nc3ccc(S(N)(=O)=O)cc3)n2)cc1 | 13.3 nM | 29% | 44% | 52% | 29% | 26% | < 10% | 12% | 21% | < 10% | < 10% | < 10% | 45% | 33% | 10% | 16% | 32% | 25% | 11% | 18% | inhibition of growth at 10 µM [21]: 14%; inhibition of growth at 10 µM [22]: < 10%; inhibition of growth at 10 µM [23]: < 10%; inhibition of growth at 10 µM [24]: 28%; inhibition of growth at 10 µM [25]: 14%; inhibition of growth at 10 µM [26]: < 10%; inhibition of growth at 10 µM [27]: 31%; inhibition of growth at 10 µM [28]: < 10%; inhibition of growth at 10 µM [29]: 31%; inhibition of growth at 10 µM [30]: 15%; inhibition of growth at 10 µM [31]: 22%; inhibition of growth at 10 µM [32]: < 10%; inhibition of growth at 10 µM [33]: 15%; inhibition of growth at 10 µM [34]: 38%; inhibition of growth at 10 µM [35]: 40%; inhibition of growth at 10 µM [36]: 13%; inhibition of growth at 10 µM [37]: 37%; inhibition of growth at 10 µM [38]: < 10%; inhibition of growth at 10 µM [39]: 52%; inhibition of growth at 10 µM [40]: 14%
NS(=O)(=O)c1ccc(Nc2nc(N/N=C/CCc3ccccc3)nc(Nc3ccccc3)n2)cc1 | 28.8 nM | < 10% | < 10% | < 10% | < 10% | < 10% | < 10% | < 10% | < 10% | < 10% | < 10% | < 10% | < 10% | < 10% | < 10% | < 10% | < 10% | < 10% | < 10% | < 10% | inhibition of growth at 10 µM [21]: < 10%; inhibition of growth at 10 µM [22]: < 10%; inhibition of growth at 10 µM [23]: < 10%; inhibition of growth at 10 µM [24]: < 10%; inhibition of growth at 10 µM [25]: < 10%; inhibition of growth at 10 µM [26]: < 10%; inhibition of growth at 10 µM [27]: < 10%; inhibition of growth at 10 µM [28]: < 10%; inhibition of growth at 10 µM [29]: < 10%; inhibition of growth at 10 µM [30]: < 10%; inhibition of growth at 10 µM [31]: < 10%; inhibition of growth at 10 µM [32]: < 10%; inhibition of growth at 10 µM [33]: < 10%; inhibition of growth at 10 µM [34]: < 10%; inhibition of growth at 10 µM [35]: < 10%; inhibition of growth at 10 µM [36]: < 10%; inhibition of growth at 10 µM [37]: < 10%; inhibition of growth at 10 µM [38]: < 10%; inhibition of growth at 10 µM [39]: < 10%; inhibition of growth at 10 µM [40]: 11%
